Reference: the supplement of paper PMC10627819

What was measured:
S. aureus Newman [1] = experiment: fitness (endpoint OD595 vs no drug) (fraction); higher = more growth
How it was run: (§1)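 Each well of a 384-well plate received 30 µl of culture at OD595 0.01, or 55 µl for S. pneumoniae. TSB, LB Lennox or CY served as media at 37 °C. OD595 was taken every 30 min for 14 h and corrected by subtracting the first reading. Fitness is the optical density at stationary-phase entry divided by the robust mean of no-drug controls, capped at 1.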

S. pneumoniae D39V [2] = experiment: as above
How it was run: as §1

B. subtilis 168 [3] = experiment: as above
How it was run: as §1

S. aureus DSM 20231 = experiment: Bliss interaction score (quartile over a dose matrix) (fitness difference); higher = more antagonism (negative = synergy)
How it was run: (§2)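 Quartiles summarise the Bliss score over technical, biological and donor/recipient replicates, where the score is observed minus expected fitness under a product model. Expected fitness uses single-drug values inferred from combination data. Fitness is OD595 at entry into stationary phase over the plate's robust no-drug mean, capped at 1.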

S. aureus Newman [4] = experiment: as above
How it was run: as §2

S. pneumoniae D39V [5] = experiment: as above
How it was run: as §2

B. subtilis 168 [6] = experiment: as above
How it was run: as §2
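For Bliss interaction score (quartile over a dose matrix) in this document: first quartile when negative (synergy) and third quartile when positive (antagonism).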

CN(N=O)C(=O)N[C@@H](C=O)[C@@H](O)[C@H](O)[C@H](O)CO [Streptozotocin] + CN(C)c1cc(NC(=O)CNC(C)(C)C)c(O)c2c1C[C@H]1C[C@H]3[C@H](N(C)C)C(O)=C(C(N)=O)C(=O)[C@@]3(O)C(O)=C1C2=O [Tigecycline]
fitness
Conditions	first compound 0.15 µg/mL	first compound 0.3 µg/mL	first compound 0.6 µg/mL	first compound 1.2 µg/mL	first compound 2.4 µg/mL	first compound 4.8 µg/mL
S. aureus Newman [1], partner 0.039 µg/mL	0.829	0.711	0.555	–	–	–
S. aureus Newman [1], partner 0.078 µg/mL	0.837	0.685	0.504	–	–	–
S. aureus Newman [1], partner 0.156 µg/mL	0.904	0.711	0.511	–	–	–
S. pneumoniae D39V [2], partner 0.65 µg/mL	–	–	–	0.934	0.965	0.973
S. pneumoniae D39V [2], partner 1.3 µg/mL	–	–	–	0.952	0.987	0.939
S. pneumoniae D39V [2], partner 2.6 µg/mL	–	–	–	0.964	0.948	0.956

fitness, B. subtilis 168 [3], one replicate
Conditions	partner 0.039 µg/mL	partner 0.078 µg/mL	partner 0.125 µg/mL	partner 0.156 µg/mL	partner 0.25 µg/mL	partner 0.5 µg/mL
first compound 0.15 µg/mL	0.936	0.975	0.958	0.877	0.892	0.921
first compound 0.3 µg/mL	≥ 1	≥ 1	0.995	0.907	0.836	0.86
first compound 0.6 µg/mL	≥ 1	0.956	0.961	0.99	0.83	0.904

Conditions	Bliss interaction score
B. subtilis 168 [6]	-0.0405
S. aureus DSM 20231	0.0681
S. aureus Newman [4]	0.0493
S. pneumoniae D39V [5]	0.0675

CNC(C)C1CCC(N)C(OC2C(N)CC(N)C(OC3OCC(C)(O)C(NC)C3O)C2O)O1 (stereo not given) [Gentamicin] + Cc1cc(NS(=O)(=O)c2ccc(N)cc2)no1 [Sulfamethoxazol]
one replicate, main component drawn
Conditions	fitness
B. subtilis 168 [3], first compound 0.0625 µg/mL, partner 0.5 µg/mL	0.848
B. subtilis 168 [3], first compound 0.125 µg/mL, partner 0.5 µg/mL	0.975
B. subtilis 168 [3], first compound 0.25 µg/mL, partner 0.5 µg/mL	0.864
S. aureus Newman [1], first compound 0.375 µg/mL, partner 1 µg/mL	≥ 1
S. aureus Newman [1], first compound 0.375 µg/mL, partner 2 µg/mL	0.979
S. aureus Newman [1], first compound 0.375 µg/mL, partner 4 µg/mL	≥ 1
S. aureus Newman [1], first compound 0.75 µg/mL, partner 1 µg/mL	0.974
S. aureus Newman [1], first compound 0.75 µg/mL, partner 2 µg/mL	0.926
S. aureus Newman [1], first compound 0.75 µg/mL, partner 4 µg/mL	≥ 1
S. aureus Newman [1], first compound 1 µg/mL, partner 8 µg/mL	≥ 1
S. aureus Newman [1], first compound 1.5 µg/mL, partner 1 µg/mL	≥ 1
S. aureus Newman [1], first compound 1.5 µg/mL, partner 2 µg/mL	0.975
S. aureus Newman [1], first compound 1.5 µg/mL, partner 4 µg/mL	0.981
S. aureus Newman [1], first compound 2 µg/mL, partner 8 µg/mL	0.975
S. aureus Newman [1], first compound 4 µg/mL, partner 2 µg/mL	0.899
S. aureus Newman [1], first compound 4 µg/mL, partner 4 µg/mL	0.691
S. aureus Newman [1], first compound 4 µg/mL, partner 8 µg/mL	0.852

fitness, main component drawn
Conditions	partner 1 µg/mL	partner 2 µg/mL	partner 4 µg/mL
B. subtilis 168 [3], first compound 0.0625 µg/mL	0.904	0.902	0.906
B. subtilis 168 [3], first compound 0.25 µg/mL	–	–	0.0278
S. aureus Newman [1], first compound 0.5 µg/mL	0.948	0.936	0.981
S. aureus Newman [1], first compound 1 µg/mL	≥ 1	≥ 1	0.999
S. aureus Newman [1], first compound 2 µg/mL	0.98	0.986	1
S. pneumoniae D39V [2], first compound 2 µg/mL	0.942	0.942	0.962
S. pneumoniae D39V [2], first compound 4 µg/mL	0.973	0.977	0.967
S. pneumoniae D39V [2], first compound 8 µg/mL	0.978	0.968	0.951

main component drawn
Conditions	Bliss interaction score
B. subtilis 168 [6]	0.128
S. aureus DSM 20231	0.0736
S. aureus Newman [4]	-0.0274
S. pneumoniae D39V [5]	0.0873

CNC(C)C1CCC(N)C(OC2C(N)CC(N)C(OC3OCC(C)(O)C(NC)C3O)C2O)O1 (stereo not given) [Gentamicin] + CC1=C\[C@@H](O)CC(=O)Cc2nc(co2)C(=O)N2CCC=C2C(=O)O[C@H](C(C)C)[C@H](C)/C=C/C(=O)NC\C=C\1 [Virginiamycin M1]
fitness, main component drawn
Conditions	partner 0.0625 µg/mL	partner 0.125 µg/mL	partner 0.25 µg/mL	partner 0.5 µg/mL	partner 1 µg/mL	partner 2 µg/mL
B. subtilis 168 [3], first compound 0.0625 µg/mL	0.895	0.897	0.905	–	–	–
B. subtilis 168 [3], first compound 0.25 µg/mL	0.0328	0.0454	0.0523	–	–	–
S. aureus Newman [1], first compound 0.5 µg/mL	0.959	0.996	0.995	–	–	–
S. aureus Newman [1], first compound 1 µg/mL	≥ 1	≥ 1	≥ 1	–	–	–
S. aureus Newman [1], first compound 2 µg/mL	≥ 1	≥ 1	≥ 1	–	–	–
S. pneumoniae D39V [2], first compound 2 µg/mL	–	–	–	0.973	≥ 1	0.952
S. pneumoniae D39V [2], first compound 4 µg/mL	–	–	–	0.99	≥ 1	0.973
S. pneumoniae D39V [2], first compound 8 µg/mL	–	–	–	0.991	≥ 1	0.943

fitness, one replicate, main component drawn
Conditions	first compound 1 µg/mL	first compound 2 µg/mL	first compound 4 µg/mL	first compound 8 µg/mL
S. aureus Newman [1], partner 0.5 µg/mL	0.849	0.873	0.22	–
S. aureus Newman [1], partner 1 µg/mL	0.961	≥ 1	0.0961	–
S. aureus Newman [1], partner 2 µg/mL	0.849	0.792	0.0867	–
S. pneumoniae D39V [2], partner 0.15 µg/mL	–	≥ 1	≥ 1	≥ 1
S. pneumoniae D39V [2], partner 0.3 µg/mL	–	≥ 1	≥ 1	0.944

main component drawn
Conditions	Bliss interaction score
B. subtilis 168 [6]	-0.0977
S. aureus DSM 20231	0.094
S. aureus Newman [4]	-0.0365
S. pneumoniae D39V [5]	0.0786

CNC(C)C1CCC(N)C(OC2C(N)CC(N)C(OC3OCC(C)(O)C(NC)C3O)C2O)O1 (stereo not given) [Gentamicin] + CN(C)c1cc(NC(=O)CNC(C)(C)C)c(O)c2c1C[C@H]1C[C@H]3[C@H](N(C)C)C(O)=C(C(N)=O)C(=O)[C@@]3(O)C(O)=C1C2=O [Tigecycline]
fitness, one replicate, main component drawn
Conditions	first compound 0.0625 µg/mL	first compound 0.125 µg/mL	first compound 0.25 µg/mL	first compound 0.375 µg/mL	first compound 0.75 µg/mL	first compound 1.5 µg/mL
B. subtilis 168 [3], partner 0.125 µg/mL	≥ 1	≥ 1	0.0664	–	–	–
B. subtilis 168 [3], partner 0.25 µg/mL	0.91	0.891	0.315	–	–	–
B. subtilis 168 [3], partner 0.5 µg/mL	0.965	0.879	0.21	–	–	–
S. aureus Newman [1], partner 0.039 µg/mL	–	–	–	0.935	0.933	0.953
S. aureus Newman [1], partner 0.078 µg/mL	–	–	–	0.97	≥ 1	0.966
S. aureus Newman [1], partner 0.156 µg/mL	–	–	–	≥ 1	0.969	0.964

main component drawn
Conditions	fitness
B. subtilis 168 [3], first compound 0.0625 µg/mL, partner 0.039 µg/mL	0.967
B. subtilis 168 [3], first compound 0.0625 µg/mL, partner 0.078 µg/mL	0.908
B. subtilis 168 [3], first compound 0.0625 µg/mL, partner 0.156 µg/mL	0.907
B. subtilis 168 [3], first compound 0.25 µg/mL, partner 0.039 µg/mL	0.186
B. subtilis 168 [3], first compound 0.25 µg/mL, partner 0.078 µg/mL	0.0549
B. subtilis 168 [3], first compound 0.25 µg/mL, partner 0.156 µg/mL	0.0589
S. aureus Newman [1], first compound 0.5 µg/mL, partner 0.039 µg/mL	0.974
S. aureus Newman [1], first compound 0.5 µg/mL, partner 0.078 µg/mL	0.949
S. aureus Newman [1], first compound 0.5 µg/mL, partner 0.156 µg/mL	0.935
S. aureus Newman [1], first compound 1 µg/mL, partner 0.039 µg/mL	0.988
S. aureus Newman [1], first compound 1 µg/mL, partner 0.078 µg/mL	≥ 1
S. aureus Newman [1], first compound 1 µg/mL, partner 0.156 µg/mL	≥ 1
S. aureus Newman [1], first compound 2 µg/mL, partner 0.039 µg/mL	≥ 1
S. aureus Newman [1], first compound 2 µg/mL, partner 0.078 µg/mL	≥ 1
S. aureus Newman [1], first compound 2 µg/mL, partner 0.156 µg/mL	≥ 1
S. pneumoniae D39V [2], first compound 2 µg/mL, partner 0.325 µg/mL	0.94
S. pneumoniae D39V [2], first compound 2 µg/mL, partner 0.65 µg/mL	0.9
S. pneumoniae D39V [2], first compound 2 µg/mL, partner 1.3 µg/mL	0.909
S. pneumoniae D39V [2], first compound 2 µg/mL, partner 2.6 µg/mL	0.897
S. pneumoniae D39V [2], first compound 4 µg/mL, partner 0.325 µg/mL	0.943
S. pneumoniae D39V [2], first compound 4 µg/mL, partner 0.65 µg/mL	0.945
S. pneumoniae D39V [2], first compound 4 µg/mL, partner 1.3 µg/mL	0.96
S. pneumoniae D39V [2], first compound 4 µg/mL, partner 2.6 µg/mL	0.903
S. pneumoniae D39V [2], first compound 8 µg/mL, partner 0.325 µg/mL	0.971
S. pneumoniae D39V [2], first compound 8 µg/mL, partner 0.65 µg/mL	0.911
S. pneumoniae D39V [2], first compound 8 µg/mL, partner 1.3 µg/mL	0.977
S. pneumoniae D39V [2], first compound 8 µg/mL, partner 2.6 µg/mL	0.858

main component drawn
Conditions	Bliss interaction score
B. subtilis 168 [6]	0.122
S. aureus DSM 20231	-0.0407
S. aureus Newman [4]	-0.0289
S. pneumoniae D39V [5]	0.0631
